Source: paper PMC3794980, “Identification of Conserved and HLA Promiscuous DENV3 T-Cell Epitopes” (PLoS Neglected Tropical Diseases, 2013)

Columns and labels:
Assay in all cases: biochemical
Format in all cases: binding
[1] = target: DRB4*0101 (Homo sapiens, UniProt P01903+P13762, G164S)
[2] = target: DRB5*0101 (Homo sapiens, UniProt P01903+Q30154)
[3] = target: DRB3*0101 (Homo sapiens, UniProt P01903+P79483)

| Structure (SMILES) | IC50 [1] [nM] | IC50 [2] [nM] | IC50 [3] [nM] |
| --- | --- | --- | --- |
| CC[C@H](C)[C@H](NC(=O)[C@@H]1CCCN1C(=O)[C@H](CCC(=O)O)NC(=O)[C@H](CC(C)C)NC(=O)[C@@H](N)CS)C(=O)N[C@@H](CCC(=O)O)C(=O)NCC(=O)N[C@@H](CCCCN)C(=O)N[C@H](C(=O)N[C@H](C(=O)N[C@@H](CCC(N)=O)C(=O)N[C@@H](Cc1ccc(O)cc1)C(=O)N[C@@H](CCC(=O)O)C(=O)N[C@@H](CC(N)=O)C(=O)N[C@@H](CC(C)C)C(=O)O)C(C)C)C(C)C [Envelope 121-135] | 1100 | 13300 | – |
| CC[C@H](C)[C@H](NC(=O)CNC(=O)[C@@H](NC(=O)[C@@H](NC(=O)[C@@H](NC(=O)[C@H](CC(N)=O)NC(=O)[C@H](CO)NC(=O)[C@H](CCC(=O)O)NC(=O)CNC(=O)[C@H](Cc1ccccc1)NC(=O)[C@@H]1CCCN1C(=O)[C@@H]1CCCN1C(=O)[C@H](CCC(=O)O)NC(=O)[C@H](C)NC(=O)[C@@H](N)CCC(=O)O)[C@@H](C)CC)C(C)C)[C@@H](C)CC)C(=O)O [Envelope 366-380] | 3810 | 12500 | 3240 |
| CC[C@H](C)[C@H](N)C(=O)N[C@H](C(=O)N[C@H](C(=O)NCC(=O)N[C@H](C(=O)NCC(=O)N[C@@H](CC(=O)O)C(=O)N[C@@H](CC(N)=O)C(=O)N[C@@H](C)C(=O)N[C@@H](CC(C)C)C(=O)N[C@@H](CCCCN)C(=O)N[C@H](C(=O)N[C@@H](CC(N)=O)C(=O)N[C@@H](Cc1c[nH]c2ccccc12)C(=O)N[C@@H](Cc1ccc(O)cc1)C(=O)O)[C@@H](C)CC)[C@@H](C)CC)[C@@H](C)CC)C(C)C [Envelope 376-390] | 1240 | 1250 | 15 |
| CC[C@H](C)[C@H](NC(=O)[C@H](CC(C)C)NC(=O)[C@H](CO)NC(=O)[C@H](C)NC(=O)[C@H](CCCCN)NC(=O)[C@H](CCC(=O)O)NC(=O)[C@H](CC(C)C)NC(=O)[C@H](CCCCN)NC(=O)[C@H](Cc1c[nH]c2ccccc12)NC(=O)[C@@H](N)CO)C(=O)N[C@@H](CCC(=O)O)C(=O)N[C@H](C(=O)N[C@@H](CCCCN)C(=O)N[C@H](C(=O)N[C@@H](CS)C(=O)O)[C@@H](C)O)C(C)C [NS1 209-223] | 5020 | 1180 | – |
| CC[C@H](C)[C@H](NC(=O)[C@@H](N)CCSC)C(=O)N[C@H](C(=O)N1CCC[C@H]1C(=O)N[C@@H](CCCCN)C(=O)N[C@@H](CO)C(=O)N[C@@H](CC(C)C)C(=O)N[C@@H](C)C(=O)NCC(=O)N1CCC[C@H]1C(=O)N[C@H](C(=O)N[C@@H](CO)C(=O)N[C@@H](CCC(N)=O)C(=O)N[C@@H](Cc1c[nH]cn1)C(=O)N[C@@H](CC(N)=O)C(=O)O)[C@@H](C)CC)[C@@H](C)CC [NS1 241-255] | 1090 | 3200 | – |
| CSCC[C@H](NC(=O)[C@H](Cc1ccc(O)cc1)NC(=O)[C@H](CCCNC(=N)N)NC(=O)[C@H](CC(C)C)NC(=O)[C@@H]1CCCN1C(=O)[C@@H]1CCCN1C(=O)[C@H](CC(C)C)NC(=O)[C@@H](NC(=O)[C@H](CS)NC(=O)[C@H](CO)NC(=O)[C@H](CCCNC(=N)N)NC(=O)[C@@H](N)CS)[C@@H](C)O)C(=O)NCC(=O)N[C@@H](CCC(=O)O)C(=O)N[C@@H](CC(=O)O)C(=O)O [NS1 313-327] | 503 | 2270 | – |
| CC[C@H](C)[C@H](NC(=O)[C@H](CC(C)C)NC(=O)[C@H](CC(=O)O)NC(=O)[C@H](CCCCN)NC(=O)[C@@H](N)CCCCN)C(=O)N[C@@H](CO)C(=O)N[C@@H](Cc1ccc(O)cc1)C(=O)NCC(=O)NCC(=O)NCC(=O)N[C@@H](Cc1c[nH]c2ccccc12)C(=O)N[C@@H](CCCNC(=N)N)C(=O)N[C@@H](CC(C)C)C(=O)N[C@@H](CO)C(=O)N[C@@H](C)C(=O)O [NS3 73-87] | 3470 | 71 | – |
| CC[C@H](C)[C@H](NC(=O)[C@H](Cc1c[nH]c2ccccc12)NC(=O)[C@H](CCC(=O)O)NC(=O)[C@@H](N)CC(N)=O)C(=O)N[C@H](C(=O)N[C@@H](CC(=O)O)C(=O)N[C@@H](Cc1ccccc1)C(=O)N[C@@H](C)C(=O)NCC(=O)N[C@@H](CCCCN)C(=O)N[C@H](C(=O)N[C@H](C(=O)N[C@@H](Cc1c[nH]c2ccccc12)C(=O)N[C@@H](Cc1ccccc1)C(=O)N[C@H](C(=O)O)C(C)C)C(C)C)[C@@H](C)O)[C@@H](C)O [NS3 349-363] | 5420 | – | 221 |
| CC[C@H](C)[C@H](NC(=O)[C@H](CCC(=O)O)NC(=O)CNC(=O)[C@H](CCCNC(=N)N)NC(=O)[C@H](CCCCN)NC(=O)[C@H](CC(C)C)NC(=O)CNC(=O)[C@H](CCC(=O)O)NC(=O)[C@H](CCCCN)NC(=O)[C@H](C)NC(=O)[C@H](CCC(=O)O)NC(=O)[C@@H](N)[C@@H](C)O)C(=O)N[C@H](C(=O)N[C@@H](Cc1c[nH]cn1)C(=O)N[C@@H](Cc1c[nH]cn1)C(=O)N[C@@H](C)C(=O)N[C@H](C(=O)O)C(C)C)[C@@H](C)O [NS5 39-55] | 563 | – | 749 |
| CC[C@H](C)[C@H](NC(=O)[C@H](CCSC)NC(=O)[C@H](CO)NC(=O)[C@H](CO)NC(=O)[C@H](C)NC(=O)[C@H](CO)NC(=O)CNC(=O)[C@@H](NC(=O)[C@H](C)NC(=O)[C@H](CCCCN)NC(=O)[C@@H](NC(=O)[C@H](CCC(=O)O)NC(=O)[C@H](Cc1ccc(O)cc1)NC(=O)[C@H](CO)NC(=O)CN)C(C)C)[C@@H](C)O)C(=O)N[C@@H](CC(N)=O)C(=O)NCC(=O)O [NS5 306-322] | 5550 | – | 2290 |
| CSCC[C@H](NC(=O)[C@H](C)NC(=O)[C@H](CCSC)NC(=O)[C@H](CCC(N)=O)NC(=O)[C@@H](NC(=O)[C@@H](NC(=O)[C@@H](N)CCSC)C(C)C)[C@@H](C)O)C(=O)N[C@H](C(=O)N[C@@H](CC(=O)O)C(=O)N[C@H](C(=O)N[C@H](C(=O)N1CCC[C@H]1C(=O)N[C@@H](Cc1ccccc1)C(=O)NCC(=O)N[C@@H](CCC(N)=O)C(=O)N[C@@H](CCC(N)=O)C(=O)N[C@@H](CCCNC(=N)N)C(=O)O)[C@@H](C)O)[C@@H](C)O)[C@@H](C)O [NS5 336-352] | 747 | 10400 | – |
| CC[C@H](C)[C@H](NC(=O)[C@H](Cc1ccc(O)cc1)NC(=O)CNC(=O)[C@H](CC(C)C)NC(=O)[C@H](CCCCN)NC(=O)[C@H](Cc1c[nH]cn1)NC(=O)[C@@H](N)CC(C)C)C(=O)N[C@@H](CC(C)C)C(=O)N[C@@H](CCCNC(=N)N)C(=O)N[C@@H](CC(=O)O)C(=O)N[C@H](C(=O)N[C@@H](CO)C(=O)N[C@@H](CCCCN)C(=O)N[C@H](C(=O)N1CCC[C@H]1C(=O)NCC(=O)NCC(=O)O)[C@@H](C)CC)[C@@H](C)CC [NS5 511-527] | 57 | 611 | – |
| CC[C@H](C)[C@H](NC(=O)[C@H](CC(=O)O)NC(=O)[C@H](CCSC)NC(=O)[C@@H](NC(=O)[C@@H](NC(=O)CNC(=O)[C@H](CCCCN)NC(=O)[C@@H]1CCCN1C(=O)[C@@H](NC(=O)[C@@H]1CCCN1)[C@@H](C)O)[C@@H](C)O)C(C)C)C(=O)N[C@H](C(=O)N[C@@H](CO)C(=O)N[C@@H](CCCNC(=N)N)C(=O)N[C@@H](CCCCN)C(=O)N[C@@H](CC(=O)O)C(=O)N[C@@H](CCC(N)=O)C(=O)N[C@@H](CCCNC(=N)N)C(=O)O)[C@@H](C)CC [NS5 582-598] | 1540 | – | 7220 |
| CC[C@H](C)[C@H](NC(=O)[C@H](CC(C)C)NC(=O)[C@H](CCC(=O)O)NC(=O)[C@@H](N)Cc1c[nH]cn1)C(=O)N[C@@H](CCSC)C(=O)N[C@@H](CCCCN)C(=O)N[C@@H](CC(=O)O)C(=O)NCC(=O)N[C@@H](CCCNC(=N)N)C(=O)N[C@@H](CCCCN)C(=O)N[C@@H](CC(C)C)C(=O)N[C@H](C(=O)N[C@H](C(=O)N1CCC[C@H]1C(=O)N[C@@H](CS)C(=O)N[C@@H](CCCNC(=N)N)C(=O)O)C(C)C)C(C)C [NS5 714-729] | 4020 | 245 | – |
